# Measurements: PubChem BioAssay (NCI)
#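 Five compound concentrations were applied to cells in 96-well plates for 48 hours; endpoints were derived by simple linear interpolation of the resulting dose-response curve. GI50 = concentration required for 50% inhibition of growth. TGI: concentration producing complete growth inhibition.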
# Legend:
# Assay in all cases: NCI anticancer screen, dose series, 48 h
# CCRF-CEM leukemia = system: CCRF-CEM leukemia
# UACC-62 melanoma = system: UACC-62 melanoma
# MCF7 breast = system: MCF7 breast
# SF-295 CNS = system: SF-295 CNS
# SK-OV-3 ovarian = system: SK-OV-3 ovarian
# NCI-H226 lung = system: NCI-H226 lung
# HL-60(TB) leukemia = system: HL-60(TB) leukemia
# RXF 393 renal = system: RXF 393 renal
# T-47D breast = system: T-47D breast
# SK-MEL-28 melanoma = system: SK-MEL-28 melanoma
SMILES,GI50 (CCRF-CEM leukemia) [µM],TGI (CCRF-CEM leukemia) [µM],GI50 (UACC-62 melanoma) [µM],TGI (UACC-62 melanoma) [µM],GI50 (MCF7 breast) [µM],TGI (MCF7 breast) [µM],GI50 (SF-295 CNS) [µM],TGI (SF-295 CNS) [µM],GI50 (SK-OV-3 ovarian) [µM],TGI (SK-OV-3 ovarian) [µM],GI50 (NCI-H226 lung) [µM],TGI (NCI-H226 lung) [µM],GI50 (HL-60(TB) leukemia) [µM],TGI (HL-60(TB) leukemia) [µM],GI50 (RXF 393 renal) [µM],TGI (RXF 393 renal) [µM],GI50 (T-47D breast) [µM],TGI (T-47D breast) [µM],GI50 (SK-MEL-28 melanoma) [µM],TGI (SK-MEL-28 melanoma) [µM]
CC12CCC=CC1CCC1C2CCC2(C)C(c3ccc(=O)oc3)CCC12O (stereo not drawn),0.0364,0.544,0.221,0.723,0.0766,1.18,0.044,0.248,0.218,0.641,0.224,0.614,0.0257,0.0689,0.0167,0.047,0.181,1.05,0.256,1.38
Cc1ccc2[nH]c(C(=O)NN3C(=O)CSC34CCCCC4C)c(-c3ccccc3)c2c1 (stereo not drawn),17,38.5,12.8,26.8,14.9,39.2,16,31.9,21.4,47.1,17.5,34.2,,,,,16.3,40,19.9,38.3
COc1cccc(OC(=O)c2ccccc2Nc2ccnc(C(F)(F)F)c2)c1,,,3.09,33.9,7.29,> 100,2.51,> 100,,,8.09,77.3,2.15,15.2,20.7,59.6,50.5,> 100,12.7,> 100
CC(=O)OC1c2ccccc2CC2(OC(C)=O)c3ccccc3C12 (stereo not drawn),,> 100,,> 100,,> 100,,> 100,,> 100,,> 100,,,,> 100,,> 100,,> 100
c1ccc2nc(Cn3c[n+](Cc4ccc5ccccc5n4)c4ccccc43)ccc2c1,3.47,21,1.34,3.51,1.91,11.5,2.69,11.9,3.03,11.3,4.13,20.4,,,3.1,12,0.785,9.65,2.38,9.98
Nc1ncnc2sc(=S)c3c(c12)CCC3,27.1,79.5,27.8,85.2,25.3,92.8,39.6,> 100,89,> 100,28.7,> 100,,,26.9,55.1,,,> 100,> 100
COc1cc2c(cc1OC)-c1ccc3cc4c(cc3c1N(CCN1CCCC1)C2)OCO4,0.186,4.36,1.07,3,,,0.441,3.1,0.526,5.51,0.876,3.16,0.882,2.7,0.794,2.72,0.361,2.28,7.09,20.3
